Source: publication PMC5902630, “A Firefly Luciferase Dual Color Bioluminescence Reporter Assay Using Two Substrates To Simultaneously Monitor Two Gene Expression Events” (Scientific Reports, 2018)

Tests used:
PLR1 = PLR1 (Photinus pyralis, UniProt P08659, Y255F/S284T, form not given); assay: bioluminescence burst (maximal light intensity), Michaelis-Menten fit; assay type: biochemical; conditions: 2 mM Mg-ATP, 50 mM Tricine, pH 7.8; read-out: Km (μM) / BtLH2
Excerpt: bioluminescence burst (maximal light intensity), Michaelis-Menten fit on PLR1

PLG3 = PLG3 (Photinus pyralis, UniProt P08659, F250T/L291I/Y340F/F465R, form not given); assay: as above; assay type: biochemical; conditions: 2 mM Mg-ATP, 50 mM Tricine, pH 7.8; read-out: Km (μM) / BtLH2
Excerpt: bioluminescence burst (maximal light intensity), Michaelis-Menten fit on PLG3

Chain of PLG3 (P08659 whole entry F250T/L291I/Y340F/F465R, form open): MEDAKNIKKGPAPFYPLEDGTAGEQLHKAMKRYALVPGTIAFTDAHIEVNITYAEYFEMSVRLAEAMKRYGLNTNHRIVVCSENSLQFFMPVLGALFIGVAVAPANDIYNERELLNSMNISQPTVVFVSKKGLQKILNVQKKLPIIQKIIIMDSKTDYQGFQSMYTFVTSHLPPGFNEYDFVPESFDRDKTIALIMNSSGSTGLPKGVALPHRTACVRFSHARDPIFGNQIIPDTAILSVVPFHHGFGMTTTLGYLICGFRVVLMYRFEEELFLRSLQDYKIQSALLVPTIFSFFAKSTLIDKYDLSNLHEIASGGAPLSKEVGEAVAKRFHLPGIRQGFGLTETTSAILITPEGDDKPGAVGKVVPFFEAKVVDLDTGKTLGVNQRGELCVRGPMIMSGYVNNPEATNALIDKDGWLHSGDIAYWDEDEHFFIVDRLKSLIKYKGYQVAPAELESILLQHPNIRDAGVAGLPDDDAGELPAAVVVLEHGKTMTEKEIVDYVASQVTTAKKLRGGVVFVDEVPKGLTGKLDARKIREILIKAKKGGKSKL
Chain of PLR1 (P08659 whole entry Y255F/S284T, form open): as the sequence (P08659 whole entry F250T/L291I/Y340F/F465R, form open) above, with T250F, Y255F, S284T, I291L, F340Y, R465F counted along it

- Km (PLR1): 28 ± 3 µM
- Km (PLG3): 5 ± 1 µM
SMILES: O=C(O)[C@H]1CSC(c2cc3ccc(O)cc3s2)=N1 [BtLH2]
